In ChEMBL document CHEMBL4507309 (2021):

Tests used:
[1] = biological target: 5-hydroxytryptamine receptor 1A (Homo sapiens, UniProt P08908); experiment: GPCRScan assay: inhibition of 5-HT1A; parameters: radioligand conc. used [nm] 0.5 – 1.0, parental cells stable CHO
[2] = biological target: T1, 5-hydroxytryptamine receptor 1B (Homo sapiens, UniProt P28222); experiment: GPCRScan assay: inhibition of 5-HT1B; parameters: radioligand conc. used [nm] 0.6 – 1.5, parental cells stable HEK
[3] = biological target: T2, 5-hydroxytryptamine receptor 1D (Homo sapiens, UniProt P28221); experiment: GPCRScan assay: inhibition of 5-HT1D; parameters: radioligand conc. used [nm] 1.0 – 2.0, parental cells HEKT
[4] = biological target: T3, 5-hydroxytryptamine receptor 2A (Homo sapiens, UniProt P28223); experiment: GPCRScan assay: inhibition of 5-HT2A; parameters: radioligand conc. used [nm] 1.2 – 2.4, parental cells HEKT
[5] = biological target: T4, 5-hydroxytryptamine receptor 2B (Homo sapiens, UniProt P41595); experiment: GPCRScan assay: inhibition of 5-HT2B; parameters: radioligand conc. used [nm] 1.0 – 2.0, parental cells stable HEK
[6] = biological target: 5-hydroxytryptamine receptor 2C (Homo sapiens, UniProt P28335); experiment: GPCRScan assay: inhibition of 5-HT2C; parameters: radioligand conc. used [nm] 1.0 – 2.5, parental cells HEK T
[7] = biological target: 5-hydroxytryptamine receptor 3A (Homo sapiens, UniProt P46098); experiment: GPCRScan assay: inhibition of 5-HT3; parameters: radioligand conc. used [nm] 1.0 – 2.0, parental cells HEKT
[8] = biological target: T5, 5-hydroxytryptamine receptor 5A (Homo sapiens, UniProt P47898); experiment: GPCRScan assay: inhibition of 5-HT5A; parameters: radioligand conc. used [nm] 2.0 - 3.3, parental cells Flp-In CHO
[9] = biological target: T6, 5-hydroxytryptamine receptor 6 (Homo sapiens, UniProt P50406); experiment: GPCRScan assay: inhibition of 5-HT6; parameters: radioligand conc. used [nm] 2.0 – 4.0, parental cells stable HEK
[10] = biological target: T7, 5-hydroxytryptamine receptor 7 (Homo sapiens, UniProt P34969); experiment: GPCRScan assay: inhibition of 5-HT7A; parameters: radioligand conc. used [nm] 5.0 – 6.0, parental cells Stable HEK
[11] = biological target: T8, D(1A) dopamine receptor (Homo sapiens, UniProt P21728); experiment: GPCRScan assay: inhibition of D1; parameters: radioligand conc. used [nm] 0.6 – 1.3, parental cells HEKT
[12] = biological target: T9, Sodium-dependent dopamine transporter (Homo sapiens, UniProt Q01959); experiment: GPCRScan assay: inhibition of DAT; parameters: radioligand conc. used [nm] 3.6 – 16.0, parental cells stable HEK
[13] = biological target: T10, Kappa-type opioid receptor (Homo sapiens, UniProt P41145); experiment: GPCRScan assay: inhibition of KOR; parameters: radioligand conc. used [nm] 0.6 – 1.2, parental cells stable HEK
[14] = biological target: T11, Histamine H1 receptor (Homo sapiens, UniProt P35367); experiment: GPCRScan assay: inhibition of H1; parameters: radioligand conc. used [nm] 0.6 – 2.0, parental cells stable HEK
[15] = biological target: T12, Histamine H2 receptor (Homo sapiens, UniProt P25021); experiment: GPCRScan assay: inhibition of H2; parameters: radioligand conc. used [nm] 0.02 – 0.05, parental cells Stable HEK
[16] = biological target: Alpha-2B adrenergic receptor (Homo sapiens, UniProt P18089); experiment: GPCRScan assay: inhibition of Alpha2B; parameters: radioligand conc. used [nm] 1.5 – 2.0, parental cells HEKT
[17] = biological target: Muscarinic acetylcholine receptor M1 (Homo sapiens, UniProt P11229); experiment: GPCRScan assay: inhibition of M1; parameters: radioligand conc. used [nm] 0.3 – 1.2, parental cells stable CHO
[18] = biological target: Muscarinic acetylcholine receptor M2 (Homo sapiens, UniProt P08172); experiment: GPCRScan assay: inhibition of M2; parameters: radioligand conc. used [nm] 0.2 – 1.0, parental cells stable CHO
[19] = biological target: T13, Sigma intracellular receptor 2 (Homo sapiens, UniProt Q5BJF2); experiment: GPCRScan assay: inhibition of Sigma 2; parameters: radioligand conc. used [nm] 5.0, parental cells HEKT
[20] = biological target: Glutamate [NMDA] receptor (Homo sapiens) (UniProt Q05586+Q12879+Q13224+O15399+O60391+Q14957+Q8TCU5); experiment: (§1) GPCRScan assay: inhibition of NMDA; format: protein-complex assay; parameters: radioligand conc. used [nm] 1.4 – 13.0; settings: Compound concentration 10.0 uM
[21] = biological target: Glutamate [NMDA] receptor; experiment: as §1; format: protein-complex assay, Homo sapiens; parameters: radioligand conc. used [nm] 1.4 – 13.0
[22] = biological target: 5-hydroxytryptamine receptor 4 (Homo sapiens, UniProt Q13639); experiment: GPCRScan assay: inhibition of 5-HT4; parameters: radioligand conc. used [nm] 0.5 – 2.0, parental cells HEK T
[23] = biological target: 5-hydroxytryptamine receptor 1A (Homo sapiens) (UniProt P08908); settings: Compound concentration 10.0 uM
[24] = biological target: T1, 5-hydroxytryptamine receptor 1B; settings: Compound concentration 10.0 uM
[25] = biological target: T2, 5-hydroxytryptamine receptor 1D; settings: Compound concentration 10.0 uM
[26] = biological target: T3, 5-hydroxytryptamine receptor 2A; settings: Compound concentration 10.0 uM
[27] = biological target: T4, 5-hydroxytryptamine receptor 2B; settings: Compound concentration 10.0 uM
[28] = biological target: 5-hydroxytryptamine receptor 2C (Homo sapiens) (UniProt P28335); settings: Compound concentration 10.0 uM
[29] = biological target: 5-hydroxytryptamine receptor 3A (Homo sapiens) (UniProt P46098); settings: Compound concentration 10.0 uM
[30] = biological target: T5, 5-hydroxytryptamine receptor 5A; settings: Compound concentration 10.0 uM
[31] = biological target: T6, 5-hydroxytryptamine receptor 6; settings: Compound concentration 10.0 uM
[32] = biological target: T7, 5-hydroxytryptamine receptor 7; settings: Compound concentration 10.0 uM
[33] = biological target: T8, D(1A) dopamine receptor; settings: Compound concentration 10.0 uM
[34] = biological target: D(2) dopamine receptor (Homo sapiens) (UniProt P14416); settings: Compound concentration 10.0 uM
[35] = biological target: D(3) dopamine receptor (Homo sapiens) (UniProt P35462); settings: Compound concentration 10.0 uM
[36] = biological target: D(1B) dopamine receptor (Homo sapiens) (UniProt P21918); settings: Compound concentration 10.0 uM
[37] = biological target: Sodium-dependent serotonin transporter (Homo sapiens) (UniProt P31645); settings: Compound concentration 10.0 uM
[38] = biological target: Sodium-dependent noradrenaline transporter (Homo sapiens) (UniProt P23975); settings: Compound concentration 10.0 uM
[39] = biological target: T9, Sodium-dependent dopamine transporter; settings: Compound concentration 10.0 uM
[40] = biological target: Mu-type opioid receptor (Homo sapiens) (UniProt P35372); settings: Compound concentration 10.0 uM
[41] = biological target: Delta-type opioid receptor (Homo sapiens) (UniProt P41143); settings: Compound concentration 10.0 uM
[42] = biological target: T10, Kappa-type opioid receptor; settings: Compound concentration 10.0 uM
[43] = biological target: T14, GABA-A receptor; anion channel (Rattus norvegicus) (UniProt O09028+P15431+P18506+P18508+P19969+P20236+P23574+P23576+P28471+P28473+P30191+P62813+P63079+P63138+Q91ZM7+Q9ES14); settings: Compound concentration 10.0 uM
[44] = biological target: T11, Histamine H1 receptor; settings: Compound concentration 10.0 uM
[45] = biological target: T12, Histamine H2 receptor; settings: Compound concentration 10.0 uM
[46] = biological target: Histamine H4 receptor (Homo sapiens) (UniProt Q9H3N8); settings: Compound concentration 10.0 uM
[47] = biological target: Alpha-1A adrenergic receptor (Homo sapiens) (UniProt P35348); settings: Compound concentration 10.0 uM
[48] = biological target: Alpha-1B adrenergic receptor (Homo sapiens) (UniProt P35368); settings: Compound concentration 10.0 uM
[49] = biological target: Alpha-2A adrenergic receptor (Homo sapiens) (UniProt P08913); settings: Compound concentration 10.0 uM
[50] = biological target: Alpha-2B adrenergic receptor (Homo sapiens) (UniProt P18089); settings: Compound concentration 10.0 uM
[51] = biological target: Alpha-2C adrenergic receptor (Homo sapiens) (UniProt P18825); settings: Compound concentration 10.0 uM
[52] = biological target: Beta-1 adrenergic receptor (Homo sapiens) (UniProt P08588); settings: Compound concentration 10.0 uM
[53] = biological target: Beta-2 adrenergic receptor (Homo sapiens) (UniProt P07550); settings: Compound concentration 10.0 uM
[54] = biological target: Muscarinic acetylcholine receptor M1 (Homo sapiens) (UniProt P11229); settings: Compound concentration 10.0 uM
[55] = biological target: Muscarinic acetylcholine receptor M2 (Homo sapiens) (UniProt P08172); settings: Compound concentration 10.0 uM
[56] = biological target: Muscarinic acetylcholine receptor M3 (Homo sapiens) (UniProt P20309); settings: Compound concentration 10.0 uM
[57] = biological target: Muscarinic acetylcholine receptor M5 (Homo sapiens) (UniProt P08912); settings: Compound concentration 10.0 uM
[58] = biological target: Beta-3 adrenergic receptor (Homo sapiens) (UniProt P13945); settings: Compound concentration 10.0 uM
[59] = biological target: T14, GABA-A receptor; anion channel (Rattus norvegicus); settings: Compound concentration 10.0 uM; remark: listed apart in the source
[60] = organism: Rattus norvegicus; settings: Compound concentration 10.0 uM
[61] = biological target: Alpha-1D adrenergic receptor (Homo sapiens) (UniProt P25100); settings: Compound concentration 10.0 uM
[62] = biological target: T13, Sigma intracellular receptor 2; settings: Compound concentration 10.0 uM
[63] = biological target: Sigma non-opioid intracellular receptor 1 (Homo sapiens) (UniProt Q99720); settings: Compound concentration 10.0 uM

T10 sequence (P41145 whole entry): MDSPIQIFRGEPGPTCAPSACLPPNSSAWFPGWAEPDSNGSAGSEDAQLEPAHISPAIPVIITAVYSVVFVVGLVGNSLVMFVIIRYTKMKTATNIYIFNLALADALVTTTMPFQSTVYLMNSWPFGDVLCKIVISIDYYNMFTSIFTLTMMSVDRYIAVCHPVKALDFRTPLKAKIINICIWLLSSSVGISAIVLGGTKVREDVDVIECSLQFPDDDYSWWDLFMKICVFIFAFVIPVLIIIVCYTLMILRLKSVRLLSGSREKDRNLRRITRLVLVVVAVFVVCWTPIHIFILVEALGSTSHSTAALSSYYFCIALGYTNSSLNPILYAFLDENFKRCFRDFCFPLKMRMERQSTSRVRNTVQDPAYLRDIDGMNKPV
T9 sequence (Q01959 whole entry): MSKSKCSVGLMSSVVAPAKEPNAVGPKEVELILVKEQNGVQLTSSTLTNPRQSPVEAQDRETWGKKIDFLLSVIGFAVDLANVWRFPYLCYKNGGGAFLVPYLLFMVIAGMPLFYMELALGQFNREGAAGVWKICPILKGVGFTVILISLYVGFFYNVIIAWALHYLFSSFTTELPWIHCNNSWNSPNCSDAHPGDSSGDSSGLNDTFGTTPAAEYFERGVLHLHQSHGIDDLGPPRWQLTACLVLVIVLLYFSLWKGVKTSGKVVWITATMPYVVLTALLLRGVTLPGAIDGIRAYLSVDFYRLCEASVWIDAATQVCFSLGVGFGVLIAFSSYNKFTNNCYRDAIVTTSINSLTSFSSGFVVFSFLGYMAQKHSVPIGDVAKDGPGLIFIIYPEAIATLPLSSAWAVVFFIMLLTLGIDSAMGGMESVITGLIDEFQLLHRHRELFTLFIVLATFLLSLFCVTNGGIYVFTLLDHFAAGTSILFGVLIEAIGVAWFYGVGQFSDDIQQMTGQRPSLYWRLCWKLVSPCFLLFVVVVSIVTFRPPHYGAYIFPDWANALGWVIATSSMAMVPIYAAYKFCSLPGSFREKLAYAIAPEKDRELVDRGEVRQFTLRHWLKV
T4 sequence (P41595 whole entry): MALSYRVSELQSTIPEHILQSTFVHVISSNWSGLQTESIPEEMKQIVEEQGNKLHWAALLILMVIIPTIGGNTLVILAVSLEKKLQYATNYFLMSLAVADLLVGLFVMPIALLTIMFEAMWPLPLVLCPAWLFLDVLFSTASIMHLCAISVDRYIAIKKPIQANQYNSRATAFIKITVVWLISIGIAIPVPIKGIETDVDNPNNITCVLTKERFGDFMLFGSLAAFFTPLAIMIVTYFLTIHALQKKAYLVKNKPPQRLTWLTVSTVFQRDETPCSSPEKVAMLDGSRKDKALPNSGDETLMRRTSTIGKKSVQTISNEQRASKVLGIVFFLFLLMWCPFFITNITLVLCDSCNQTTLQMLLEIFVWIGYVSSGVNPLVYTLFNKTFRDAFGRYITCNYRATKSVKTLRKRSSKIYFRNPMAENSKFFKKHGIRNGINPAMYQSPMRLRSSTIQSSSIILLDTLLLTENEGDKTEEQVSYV
T11 sequence (P35367 whole entry): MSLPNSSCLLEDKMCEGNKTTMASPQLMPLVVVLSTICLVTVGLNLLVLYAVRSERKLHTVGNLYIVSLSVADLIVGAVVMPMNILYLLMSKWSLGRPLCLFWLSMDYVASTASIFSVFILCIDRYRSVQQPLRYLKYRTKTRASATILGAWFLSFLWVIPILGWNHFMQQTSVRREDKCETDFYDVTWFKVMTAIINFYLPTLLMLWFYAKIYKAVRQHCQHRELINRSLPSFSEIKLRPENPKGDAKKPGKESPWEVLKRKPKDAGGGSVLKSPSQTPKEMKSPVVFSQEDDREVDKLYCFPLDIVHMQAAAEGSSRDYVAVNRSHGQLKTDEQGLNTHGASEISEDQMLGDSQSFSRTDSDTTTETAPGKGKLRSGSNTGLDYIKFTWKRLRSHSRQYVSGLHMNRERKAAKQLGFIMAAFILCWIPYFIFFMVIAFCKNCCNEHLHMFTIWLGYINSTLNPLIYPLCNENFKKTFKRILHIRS
T2 sequence (P28221 whole entry): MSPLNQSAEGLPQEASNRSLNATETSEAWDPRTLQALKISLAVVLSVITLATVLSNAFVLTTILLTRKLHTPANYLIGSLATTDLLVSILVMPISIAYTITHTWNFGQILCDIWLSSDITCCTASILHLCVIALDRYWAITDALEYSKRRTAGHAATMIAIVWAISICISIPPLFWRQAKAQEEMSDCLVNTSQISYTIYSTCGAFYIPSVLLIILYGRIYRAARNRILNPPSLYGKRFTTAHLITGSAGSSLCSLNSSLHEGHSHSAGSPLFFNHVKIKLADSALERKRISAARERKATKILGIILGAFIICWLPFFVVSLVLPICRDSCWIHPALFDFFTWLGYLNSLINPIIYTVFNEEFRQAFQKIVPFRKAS
T12 sequence (P25021 whole entry): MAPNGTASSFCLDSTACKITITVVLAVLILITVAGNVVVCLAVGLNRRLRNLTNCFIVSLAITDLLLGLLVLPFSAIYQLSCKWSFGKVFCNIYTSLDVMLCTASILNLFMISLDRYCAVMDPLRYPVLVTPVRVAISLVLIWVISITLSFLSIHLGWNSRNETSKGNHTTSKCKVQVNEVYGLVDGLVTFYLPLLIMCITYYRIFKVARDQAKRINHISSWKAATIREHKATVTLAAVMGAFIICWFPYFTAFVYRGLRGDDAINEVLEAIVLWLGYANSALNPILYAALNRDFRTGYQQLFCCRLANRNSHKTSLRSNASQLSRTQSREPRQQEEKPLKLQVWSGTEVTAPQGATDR
T1 sequence (P28222 whole entry): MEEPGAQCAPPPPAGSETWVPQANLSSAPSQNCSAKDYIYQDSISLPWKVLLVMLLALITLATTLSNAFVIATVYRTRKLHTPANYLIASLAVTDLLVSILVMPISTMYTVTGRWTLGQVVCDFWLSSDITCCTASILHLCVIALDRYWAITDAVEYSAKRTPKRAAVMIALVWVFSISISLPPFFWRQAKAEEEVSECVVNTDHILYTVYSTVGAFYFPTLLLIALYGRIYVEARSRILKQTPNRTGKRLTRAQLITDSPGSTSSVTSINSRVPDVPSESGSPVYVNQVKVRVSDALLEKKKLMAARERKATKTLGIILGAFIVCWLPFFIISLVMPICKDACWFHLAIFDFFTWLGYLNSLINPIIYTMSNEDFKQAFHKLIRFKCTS
T5 sequence (P47898 whole entry): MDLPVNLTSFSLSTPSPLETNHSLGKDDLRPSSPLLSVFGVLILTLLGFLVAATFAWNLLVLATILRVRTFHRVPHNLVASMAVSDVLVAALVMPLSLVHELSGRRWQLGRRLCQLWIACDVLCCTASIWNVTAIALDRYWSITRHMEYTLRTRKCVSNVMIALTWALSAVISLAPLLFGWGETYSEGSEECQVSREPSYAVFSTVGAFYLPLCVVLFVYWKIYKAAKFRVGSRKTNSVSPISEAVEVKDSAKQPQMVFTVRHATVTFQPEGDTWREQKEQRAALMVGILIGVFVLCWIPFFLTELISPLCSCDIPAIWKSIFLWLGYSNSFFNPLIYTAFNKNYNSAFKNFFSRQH
T6 sequence (P50406 whole entry): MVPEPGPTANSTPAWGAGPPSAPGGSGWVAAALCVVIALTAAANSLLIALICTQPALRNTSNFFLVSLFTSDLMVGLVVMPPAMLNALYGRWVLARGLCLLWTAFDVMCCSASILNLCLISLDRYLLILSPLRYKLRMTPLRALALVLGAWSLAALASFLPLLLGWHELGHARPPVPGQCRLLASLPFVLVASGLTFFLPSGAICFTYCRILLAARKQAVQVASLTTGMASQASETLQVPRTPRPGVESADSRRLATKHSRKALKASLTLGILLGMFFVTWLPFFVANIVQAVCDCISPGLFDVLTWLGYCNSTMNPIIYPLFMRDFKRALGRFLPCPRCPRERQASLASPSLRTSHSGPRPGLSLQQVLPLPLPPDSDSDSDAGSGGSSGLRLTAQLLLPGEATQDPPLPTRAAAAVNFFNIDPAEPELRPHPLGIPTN
T13 sequence (Q5BJF2 whole entry): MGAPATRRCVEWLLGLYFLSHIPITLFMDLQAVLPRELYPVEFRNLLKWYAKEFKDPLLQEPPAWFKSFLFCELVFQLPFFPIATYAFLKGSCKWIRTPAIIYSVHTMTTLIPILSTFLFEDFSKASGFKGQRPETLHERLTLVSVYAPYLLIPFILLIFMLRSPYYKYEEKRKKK
Alpha-2B adrenergic receptor, sequence (P18089 whole entry): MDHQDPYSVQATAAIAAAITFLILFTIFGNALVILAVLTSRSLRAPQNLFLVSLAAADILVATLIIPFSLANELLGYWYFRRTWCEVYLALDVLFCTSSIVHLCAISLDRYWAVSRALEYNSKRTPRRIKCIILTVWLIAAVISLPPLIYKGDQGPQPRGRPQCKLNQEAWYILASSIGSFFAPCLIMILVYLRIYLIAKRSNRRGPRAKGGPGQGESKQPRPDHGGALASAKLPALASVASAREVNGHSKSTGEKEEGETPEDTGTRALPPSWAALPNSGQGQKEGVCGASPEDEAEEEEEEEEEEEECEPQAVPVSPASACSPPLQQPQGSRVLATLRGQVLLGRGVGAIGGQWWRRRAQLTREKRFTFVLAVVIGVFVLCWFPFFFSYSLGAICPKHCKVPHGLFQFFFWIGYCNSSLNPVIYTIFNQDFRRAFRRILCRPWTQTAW
5-hydroxytryptamine receptor 4, sequence (Q13639 whole entry): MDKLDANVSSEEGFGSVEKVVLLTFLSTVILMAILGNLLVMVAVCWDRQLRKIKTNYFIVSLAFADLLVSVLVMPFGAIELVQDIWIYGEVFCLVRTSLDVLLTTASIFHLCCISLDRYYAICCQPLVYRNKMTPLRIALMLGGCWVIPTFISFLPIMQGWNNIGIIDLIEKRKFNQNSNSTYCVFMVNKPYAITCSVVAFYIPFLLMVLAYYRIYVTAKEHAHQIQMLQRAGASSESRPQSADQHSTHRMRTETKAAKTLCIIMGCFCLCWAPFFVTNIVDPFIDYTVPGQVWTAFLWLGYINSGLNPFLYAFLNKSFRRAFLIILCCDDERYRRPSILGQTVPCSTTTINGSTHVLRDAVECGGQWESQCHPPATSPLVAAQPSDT

Ki ([1]; read-out: Ki): 0.223 µM | Ki ([1]; read-out: pKi (converted)): 0.214 µM | Ki ([2]; read-out: Ki): 3.41 µM | Ki ([2]; read-out: pKi (converted)): 3.31 µM | Ki ([3]; read-out: Ki): 3.25 µM | Ki ([3]; read-out: pKi (converted)): 3.14 µM | Ki [4]: 3.28 µM | Ki ([5]; read-out: Ki): 0.237 µM | Ki ([5]; read-out: pKi (converted)): 0.224 µM | Ki [6]: 5.55 µM | Ki ([7]; read-out: Ki): 3.99 µM | Ki ([7]; read-out: pKi (converted)): 3.72 µM | Ki ([8]; read-out: Ki): 5.82 µM | Ki ([8]; read-out: pKi (converted)): 5.62 µM | Ki [9]: 6.68 µM | Ki [10]: 2.08 µM | Ki [11]: 3.42 µM | Ki ([12]; read-out: Ki): 2.12 µM | Ki ([12]; read-out: pKi (converted)): 1.62 µM | Ki ([13]; read-out: Ki): 2.31 µM | Ki ([13]; read-out: pKi (converted)): 2.19 µM | Ki ([14]; read-out: Ki): 4.55 µM | Ki ([14]; read-out: pKi (converted)): 4.68 µM | Ki ([15]; read-out: Ki): 1.91 µM | Ki ([15]; read-out: pKi (converted)): 1.78 µM | Ki ([16]; read-out: Ki): 3.04 µM | Ki ([16]; read-out: pKi (converted)): 2.57 µM | Ki [17]: 4.05 µM | Ki [18]: 4.43 µM | Ki [19]: 1.89 µM | inhibition [20]: 0% | Ki [21]: 1 µM | Ki [22]: 6.69 µM | inhibition ([22]; Compound concentration 10.0 uM): 0% | inhibition [23]: 72.1% | inhibition [24]: 17.7% | inhibition [25]: 58.6% | inhibition [26]: 19.9% | inhibition [27]: 80% | inhibition [28]: 31.7% | inhibition [29]: 55% | inhibition [30]: 28.8% | inhibition [31]: 23% | inhibition [32]: 60% | inhibition [33]: 3.15% | inhibition [34]: 8.56% | inhibition [35]: 5.75% | inhibition [36]: 16.7% | inhibition [37]: 35.4% | inhibition [38]: 26.2% | inhibition [39]: 52.1% | inhibition [40]: 39.7% | inhibition [41]: 22.5% | inhibition [42]: 48.4% | inhibition [43]: 1.68% | inhibition [44]: 25.5% | inhibition [45]: 24.8% | inhibition [46]: 0.51% | inhibition [47]: 23% | inhibition [48]: 16.5% | inhibition [49]: 17.6% | inhibition [50]: 21.8% | inhibition [51]: 44.7% | inhibition [52]: 18.8% | inhibition [53]: 33.3% | inhibition [54]: 12.4% | inhibition [55]: 22% | inhibition [56]: -3.52% | inhibition [57]: 15.5% | inhibition [58]: 11.6% | inhibition [59]: 4.11% | inhibition [60]: 8.58% | inhibition [61]: 25.4% | inhibition [62]: 50.3% | inhibition [63]: 3.82%
Structure (SMILES): Cc1ccc2nc(CNCCCOc3ccccc3)cc(O)c2c1 [UCSF924]
